One data set can be described thus: physchem. The conditions noted are these: pH 7.4, aqueous buffer, kinetic from dmso stock.
For the next data set, the system named is MA9-NRas cells. Briefly: NRAS IC50 (MA9-NRas cells). It counts as cell-based.
[1] abbreviates: Homo sapiens, read-out: NRAS IC50.
[2] abbreviates: Homo sapiens; read-out: NRAS IC50.

The structures appear in SMILES notation. Converted amounts (≈) assume the structure as drawn. Like-named read-outs stand apart in the source and are kept apart here.

Turning to `c1cc(NC2CNC2)nc(-c2cnc3ccccn23)c1` [Compound I-12, N-(azetidin-3-yl)-6-(imidazo[1,2-a]pyridin-3-yl)pyridin-2-amine], the Stability (rat) is above 30.0 min. In addition, the solubility (usually how much of the substance goes into solution per volume) in “physchem” was above 39 µg/mL.

With `Clc1ccc2ncc(-c3cccc(NC4CCNC4)n3)n2c1` (stereo not shown) [Compound I-16, 6-(6-chloroimidazo[1,2-a]pyridin-3-yl)-N-(pyrrolidin-3-yl)pyridin-2-amine], where the note is “rat”, the Stability is 25.6 min. Further, the IC50 (usually the concentration needed to halve the response being measured) with MA9-NRas cells (setting [1]) turned out to be 1.76 µM. The compound also yielded a solubility in “physchem” above 46 µg/mL.

With `COc1cc2ncc(-c3cccc(NC4CCNC4)n3)n2cc1Cl` (stereo not shown) [Compound I-21, 6-(6-chloro-7-methoxyimidazo[1,2-a]pyridin-3-yl)-N-(pyrrolidin-3-yl)pyridin-2-amine], where the note is “rat”, the Stability was determined as 27 min. In “physchem”, this compound returned a solubility of 7.7 µg/mL (≈ 22.4 µM).

Regarding `COc1cc2ncc(-c3cccc(NC4CCNC4)n3)n2cc1-c1ccncc1` (stereo not shown) [Compound I-23, 6-(7-methoxy-6-(pyridin-4-yl)imidazo[1,2-a]pyridin-3-yl)-N-(pyrrolidin-3-yl)pyridin-2-amine], the Stability (rat) is listed as above 30.0 min. Further, in the data set with MA9-NRas cells (setting [1]), the IC50 is 1.83 µM. In the data set “physchem”, this compound gave a solubility of 11.6 µg/mL (≈ 30 µM).

As to `COc1cc2ncc(-c3cccc(NC4CCNC4)n3)n2cc1-c1c(C)n[nH]c1C` (stereo not shown) [Compound I-25, 6-(6-(3,5-dimethyl-1H-pyrazol-4-yl)-7-methoxyimidazo[1,2-a]pyridin-3-yl)-N-(pyrrolidin-3-yl)pyridin-2-amine], the Stability (rat) is given as above 30.0 min. Moreover, the IC50 in the data set with MA9-NRas cells (setting [2]) turned out to be 15.7 µM. The solubility in the data set “physchem” is above 60 µg/mL.

`COc1cc2ncc(-c3cccc(NC4CCNC4)n3)n2cc1-c1cnn(CCN2CCOCC2)c1` (stereo not shown) [Compound I-26] gave a Stability (rat) above 30.0 min. In addition, in the data set on MA9-NRas cells (setting [1]), the concentration for half-maximal inhibition (IC50) was determined as 15.7 µM. In “physchem”, this compound yielded a solubility above 72 µg/mL.

Take `COc1cc2ncc(-c3cccc(NC4CCNC4)n3)n2cc1-c1cc[nH]c1` (stereo not shown) [Compound I-27, 6-(7-methoxy-6-(1H-pyrrol-3-yl)imidazo[1,2-a]pyridin-3-yl)-N-(pyrrolidin-3-yl)pyridin-2-amine]: under “rat”, the Stability is recorded as above 30.0 min. Further, the IC50 in the data set with MA9-NRas cells (setting [1]) came to 4.43 µM. The amount in solution in “physchem” (solubility) came to 34.3 µg/mL (≈ 91.6 µM).

`COc1cc2ncc(-c3cccc(NC4CCNC4)n3)n2cc1-c1c(C)noc1C` (stereo not shown) [Compound I-28, 6-(6-(3,5-dimethylisoxazol-4-yl)-7-methoxyimidazo[1,2-a]pyridin-3-yl)-N-(pyrrolidin-3-yl)pyridin-2-amine] registered a Stability (rat) of 15.7 min. In addition, in the data set on MA9-NRas cells (setting [2]), the IC50 is 14.8 µM. The same compound registered a solubility in “physchem” above 60 µg/mL.

In turn, `COc1cc2ncc(-c3cccc(NC4CCCNC4)n3)n2cc1-c1cn[nH]c1` (stereo not shown) [Compound I-29, 6-(7-methoxy-6-(1H-pyrazol-4-yl)imidazo[1,2-a]pyridin-3-yl)-N-(piperidin-3-yl)pyridin-2-amine] displayed a Stability (rat) of 9.8 min. The IC50 in the data set with MA9-NRas cells (setting [1]) came to 9.35 µM. In the data set “physchem”, this compound gave a solubility of 35.6 µg/mL (≈ 91.4 µM).

Regarding `COc1cc2ncc(-c3cccc(NC4CCNCC4)n3)n2cc1-c1cn[nH]c1` [Compound I-30], the Stability (rat) is 24.7 min. For the same compound, in “physchem”, the concentration in solution (solubility) was 12.3 µg/mL (≈ 31.6 µM).

Consider `COc1cc2ncc(-c3cccc(N(C)C4CCNC4)n3)n2cc1-c1cn[nH]c1` (stereo not shown) [Compound I-31, 6-(7-methoxy-6-(1H-pyrazol-4-yl)imidazo[1,2-a]pyridin-3-yl)-N-methyl-N-(pyrrolidin-3-yl)pyridin-2-amine], for which the Stability (rat) stood at 11.5 min. The IC50 with MA9-NRas cells (setting [2]) stood at 16.6 µM. The compound also came in with a solubility in the data set “physchem” of 14.1 µg/mL (≈ 36.2 µM).

Consider `COc1cc2ncc(-c3cccc(OC4CCNC4)n3)n2cc1-c1cn[nH]c1` (stereo not shown) [Compound I-32, 7-methoxy-6-(1H-pyrazol-4-yl)-3-(6-(pyrrolidin-3-yloxy)pyridin-2-yl)imidazo[1,2-a]pyri-dine], for which, for the setting “rat”, the Stability was found to be 7.7 min. Further, the IC50 in the data set with MA9-NRas cells (setting [1]) is 3.72 µM. Also, the solubility in “physchem” amounted to 8.2 µg/mL (≈ 21.8 µM).

`COc1cc2ncc(-c3nc(NC4CCNC4)c(F)cc3F)n2cc1-c1cn[nH]c1` (stereo not shown) [Compound I-33, 3,5-difluoro-6-(7-methoxy-6-(1H-pyrazol-4-yl)imidazo[1,2-a]pyridin-3-yl)-N-(pyrrolidin-3-yl)pyridin-2-amine] showed a Stability (rat) of 9.3 min. In addition, the IC50 with MA9-NRas cells (setting [1]) stood at 29.8 µM. The compound also showed a solubility in the data set “physchem” of 3.9 µg/mL (≈ 9.48 µM).

With `COc1cc2ncc(-c3cccc(NC4CCNC4)n3)n2cc1OC` (stereo not shown) [Compound I-36], where the note is “rat”, the Stability is above 30.0 min. In the data set on MA9-NRas cells (setting [1]), the IC50 was determined as 4.43 µM. In the data set “physchem”, this compound returned a solubility above 50 µg/mL.

Take `COc1cc(-c2cn[nH]c2)cn2c(-c3cccc(NC4CCNC4)n3)cnc12` (stereo not shown) [Compound I-37]: the Stability (rat) is recorded as 2.3 min. Further, in the data set on MA9-NRas cells (setting [1]), the IC50 is 16.6 µM. The compound further showed a solubility in the data set “physchem” above 55 µg/mL.

On to `COc1cc2ncc(-c3cccc(NC4CCNC4)n3)n2cc1-c1nnn[nH]1` (stereo not shown) [Compound I-38], for which the Stability (rat) is reported as above 30.0 min. Moreover, in the data set on MA9-NRas cells (setting [1]), the half-inhibitory concentration (IC50) was 0.002 µM. In the data set “physchem”, this compound came in with a solubility above 56 µg/mL.

`COc1cc2ncc(-c3cccc(NC4CCNC4)n3)n2cc1C#N` (stereo not shown) [Compound I-39] returned a Stability (rat) of 8.8 min. For the same compound, the half-inhibitory concentration (IC50) with MA9-NRas cells (setting [1]) turned out to be 5.58 µM. The solubility in the data set “physchem” was 10.6 µg/mL (≈ 31.7 µM).

The compound `Clc1cn2c(-c3cccc(NC4CCNC4)n3)cnc2cc1OCCN1CCOCC1` (stereo not shown) [Compound I-40] had a Stability (rat) above 30.0 min. Further, the IC50 in the data set on MA9-NRas cells (setting [1]) amounted to 0.626 µM. Besides, the solubility in the data set “physchem” was above 65 µg/mL.

Under “rat”, `c1cc(NC2CCNC2)nc(-c2cnc3cc(OCCN4CCOCC4)c(-c4cn[nH]c4)cn23)c1` (stereo not shown) [Compound I-41, 6-(7-(2-morpholinoethoxy)-6-(1H-pyrazol-4-yl)imidazo[1,2-a]pyridin-3-yl)-N-(pyrrolidin-3-yl)pyridin-2-amine] showed a Stability above 30.0 min. Further, in the data set with MA9-NRas cells (setting [1]), the half-maximal inhibitory concentration (IC50) is 17.6 µM. Besides, in the data set “physchem”, the solubility is above 70 µg/mL.

Take `c1cc(N[C@H]2CCNC2)nc(-c2cnc3ccc(-c4cn[nH]c4)cn23)c1` [Compound I-44]: the Stability came out at 6.7 min. This compound also had a solubility in “physchem” of 42.6 µg/mL (≈ 123 µM).

With `c1cc(NC2CNC2)nc(-c2cnc3ccc(-c4cn[nH]c4)cn23)c1` [Compound I-45], the IC50 in the data set on MA9-NRas cells (setting [1]) is 4.29 µM. In addition, the solubility in the data set “physchem” was above 49 µg/mL.

Compound `Cc1ccc(-c2cnc3ccc(Cl)cn23)nc1NC1CNC1` [Compound I-48] gave a Stability (rat) of 11.8 min. This compound also returned a solubility in “physchem” above 46 µg/mL.

In the case of `Cc1ccc(NC2CNC2)nc1-c1cnc2ccc(Cl)cn12` [Compound I-49], for the setting “rat”, the Stability is 26.2 min. In addition, the solubility in “physchem” was above 46 µg/mL.

On to `COc1ccn2c(-c3cccc(NC4CNC4)n3)cnc2c1` [Compound I-50, N-(azetidin-3-yl)-6-(7-methoxyimidazo[1,2-a]pyridin-3-yl)pyridin-2-amine], for which the Stability (rat) is recorded as above 30.0 min. Further, the solubility in “physchem” was above 44 µg/mL.

Regarding `CN(c1cccc(-c2cnc3ccc(Cl)cn23)n1)C1CCNCC1` [Compound I-51], the Stability came to 9.0 min. The compound also had a solubility in the data set “physchem” above 50 µg/mL.

Consider `Brc1ccc2ncc(-c3cccc(NC4CNC4)n3)n2c1` [Compound I-52], for which the Stability (rat) was determined as 19.8 min. For the same compound, in “physchem”, the concentration in solution (solubility) was 41.8 µg/mL (≈ 121 µM).

For the compound `Clc1ccc2ncc(-c3cc(Br)cc(NC4CNC4)n3)n2c1` [Compound I-53], for the setting “rat”, the Stability is above 30.0 min. Besides, in “physchem”, the solubility worked out at 19.5 µg/mL (≈ 51.5 µM).

In the case of `c1cc(NC2CCNC2)nc(-c2cnc3ccc(-c4cn[nH]c4)cn23)c1` (stereo not shown) [Compound I-54, 6-(6-(1H-pyrazol-4-yl)imidazo[1,2-a]pyridin-3-yl)-N-(pyrrolidin-3-yl)pyridin-2-amine], the Stability turned out to be 7.6 min. This compound yielded a solubility in the data set “physchem” above 51 µg/mL.

In turn, `Cc1cc(NC2CNC2)nc(-c2cnc3ccc(Cl)cn23)c1` [Compound I-55, N-(azetidin-3-yl)-6-(6-chloroimidazo[1,2-a]pyridin-3-yl)-4-methylpyridin-2-amine] displayed a solubility in “physchem” above 46 µg/mL.

Compound `CC(=O)N1CC(Nc2cccc(-c3cnc4ccc(Cl)cn34)n2)C1` [Compound I-57] came in with a Stability (rat) above 30.0 min. In “physchem”, this compound came in with a solubility above 50 µg/mL.

On to `O=C(c1ccccc1)N1CC(Nc2cccc(-c3cnc4ccc(Cl)cn34)n2)C1` [Compound I-58], for which the Stability (rat) was 8.0 min. Also, the solubility in “physchem” was below 1 µg/mL.

Regarding `N#CCC(=O)N1CC(Nc2cccc(-c3cnc4ccc(Cl)cn34)n2)C1` [Compound I-59], the Stability (rat) was above 30.0 min. Further, in “physchem”, the solubility is 18.3 µg/mL (≈ 49.9 µM).

Where the note is “rat”, `N#Cc1ccc2ncc(-c3cccc(NC4CNC4)n3)n2c1` [Compound I-60, 3-(6-(azetidin-3-ylamino)pyridin-2-yl)imidazo[1,2-a]pyridine-6-carbonitrile] came in with a Stability of 16.4 min. This compound also returned a solubility in “physchem” above 43 µg/mL.

For the setting “rat”, `Cc1ccn2c(-c3cccc(NC4CNC4)n3)cnc2c1` [Compound I-61, N-(azetidin-3-yl)-6-(7-methylimidazo[1,2-a]pyridin-3-yl)pyridin-2-amine] had a Stability above 30.0 min. For the same compound, the solubility in the data set “physchem” was above 41 µg/mL.

Regarding `Clc1cc2ncc(-c3cccc(NC4CNC4)n3)n2cc1Cl` [Compound I-62], the Stability (rat) was above 30.0 min. This compound showed a solubility in “physchem” of 41.5 µg/mL (≈ 124 µM).

Take `Clc1ccn2c(-c3cccc(NC4CNC4)n3)cnc2c1` [Compound I-63, N-(azetidin-3-yl)-6-(7-chloroimidazo[1,2-a]pyridin-3-yl)pyridin-2-amine]: the solubility in the data set “physchem” was above 44 µg/mL.

In the data set “physchem”, `CCN1CCN(c2ccc3ncc(-c4cccc(NC5CNC5)n4)n3c2)CC1` [Compound I-64] displayed a solubility above 56 µg/mL.

For the setting “rat”, `COc1cc(NC2CNC2)nc(-c2cnc3ccc(Cl)cn23)c1` [Compound I-67, N-(azetidin-3-yl)-6-(6-chloroimidazo[1,2-a]pyridin-3-yl)-4-methoxypyridin-2-amine] showed a Stability above 30.0 min. Moreover, the solubility in the data set “physchem” was above 49 µg/mL.

Where the note is “rat”, `C#Cc1cn2c(-c3cccc(NC4CCNC4)n3)cnc2cc1OC` (stereo not shown) [Compound I-68, 6-(6-ethynyl-7-methoxyimidazo[1,2-a]pyridin-3-yl)-N-(pyrrolidin-3-yl)pyridin-2-amine] showed a Stability of 11.6 min. The same compound registered a solubility in the data set “physchem” above 49 µg/mL.

The record behind these values is patent US11254667B2 (priority 2016, dated 2022).
